Laboratory results taken from ChEMBL document CHEMBL3045721, “Fungicidal Activity of New Diphenylphosphinic Amide Derivatives” (Biosci Biotechnol Biochem, 1992).

Columns and labels:
[1] = tested on: Pseudoperonospora cubensis; assay: Fungicidal activity against Pseudoperonospora cubensis administered through preventive foliar spraying of compound at 25 ppm 1 day before fungal inoculation on cucumber plants assessed as prevention of cucumber downy mildew measured 6 days after inoculation under greenhouse conditions; format: functional
[2] = tested on: Cucumis sativus; assay: Toxicity against Pseudoperonospora cubensis infected Cucumis sativus (cucumber) plants administered through preventive foliar spraying of compound at 25 to 100 ppm 1 day before fungal inoculation on cucumber plants measured 6 days after inoculation under greenhouse conditions; format: organism-based; conditions: in vivo, other, 144 h
[3] = tested on: Pseudoperonospora cubensis; assay: Fungicidal activity against Pseudoperonospora cubensis administered through preventive foliar spraying of compound at 100 ppm 1 day before fungal inoculation on cucumber plants assessed as prevention of cucumber downy mildew measured 6 days after inoculation under greenhouse conditions; format: functional
[4] = tested on: Pseudoperonospora cubensis; assay: Fungicidal activity against Pseudoperonospora cubensis administered through preventive foliar spraying of compound at 100 ppm 5 days before fungal inoculation on cucumber plants assessed as prevention of cucumber downy mildew measured 6 days after inoculation under field test conditions; format: functional
[5] = tested on: Cucumis sativus; assay: Toxicity against Pseudoperonospora cubensis infected Cucumis sativus (cucumber) plants administered through preventive foliar spraying of compound at 100 ppm 5 days before fungal inoculation on cucumber plants measured 6 days after inoculation under field test conditions; format: organism-based; conditions: in vivo, other, 144 h

Compound | Activity [1] [%] | Activity [2] | Activity [3] [%] | Activity [4] [%] | Activity [5]
N#CCSP(=NP(=O)(c1ccccc1)c1ccccc1)(c1ccccc1)c1ccccc1 | 74 | Non-toxic | 89 |  | 
CCOC(=O)C(C)SP(=NP(=O)(c1ccccc1)c1ccccc1)(c1ccccc1)c1ccccc1 (stereo unspecified) | 76 | Non-toxic | 90 |  | 
CSP(=NP(=S)(c1ccccc1)c1ccccc1)(c1ccccc1)c1ccccc1 | 50 | Non-toxic | 82 |  | 
O=C(CSP(=NP(=S)(c1ccccc1)c1ccccc1)(c1ccccc1)c1ccccc1)NCc1ccccc1 | 73 | Non-toxic | 87 |  | 
O=C(CSP(=NP(=O)(c1ccccc1)c1ccccc1)(c1ccccc1)c1ccccc1)Nc1ccccc1 | 75 | Non-toxic | 91 |  | 
CSP(=NP(=O)(c1ccccc1)c1ccccc1)(c1ccccc1)c1ccccc1 | 41 | Non-toxic | 80 |  | 
C/C=C/CSP(=NP(=O)(c1ccccc1)c1ccccc1)(c1ccccc1)c1ccccc1 | 40 | Non-toxic | 79 |  | 
CCSP(=NP(=O)(c1ccccc1)c1ccccc1)(c1ccccc1)c1ccccc1 | 43 | Non-toxic | 82 |  | 
CCSP(=NP(=S)(c1ccccc1)c1ccccc1)(c1ccccc1)c1ccccc1 | 47 | Non-toxic | 79 |  | 
CCOC(=O)CSP(=NP(=O)(c1ccccc1)c1ccccc1)(c1ccccc1)c1ccccc1 | 77 | Non-toxic | 92 |  | 
O=C(CSP(=NP(=O)(c1ccccc1)c1ccccc1)(c1ccccc1)c1ccccc1)NCc1ccccc1 | 76 | Non-toxic | 93 |  | 
CCOC(=O)C(C)SP(=NP(=S)(c1ccccc1)c1ccccc1)(c1ccccc1)c1ccccc1 (stereo unspecified) | 70 | Non-toxic | 85 |  | 
S=P(N=P(SCc1ccccc1)(c1ccccc1)c1ccccc1)(c1ccccc1)c1ccccc1 | 88 | Non-toxic | 100 | 91 | Non-toxic
O=P(N=P(SCc1ccccc1)(c1ccccc1)c1ccccc1)(c1ccccc1)c1ccccc1 | 86 | Non-toxic | 100 | 88 | Non-toxic
